According to patent EP2711007A1, “4-Aminopyrazolo[3,4-d]pyrimidine for use in treating or preventing primary and metastatic breast and prostate cancer” (Institut Univ. de Ciència i Tecnologia, S.A., priority 2012, dated 2014):

Columns and labels:
[1] = test system: MCF-7 breast cancer cell line; test: Tetrazolium dye proliferation (WST-1) assay, MCF-7; assay type: cell-based; parameters: proliferation inhibitory effect compared with Gemcitabine: concentration or dose not given beside the values; settings: 5 days incubation; for proliferation inhibitory effect compared with Gemcitabine: Gemcitabine set to 0, negative = less inhibition than Gemcitabine; for inhibition at 1 µM: Homo sapiens, MCF7, 120 h, concentration not given (primary screen 1 microM), mean±SD, read-out: proliferation inhibitory effect compared with 0.1 % DMSO vehicle control group
Protocol: (§1) Determination of the ability of compound of formula (I) and combinations between compound of formula (I) and certain therapeutic compounds described herein to inhibit the proliferation of target cells was assayed in vitro against breast and prostate tumour cells. The antiproliferative activity was measured through the commercial WST-1 proliferation measurement reagent in a two-step screening procedure: […] MCF-7 and LNCaP cells were purchased from ATCC. PNT1A cells were purchased from ECACC. The cells were grown in a subconfluent condition to maintain a logarithmic growth phase. The cells were dislodged for passage using trypsin-EDTA. The proliferation of the cell lines was evaluated by using the commercial WST-1 proliferation measurement reagent. Cells from exponentially growing cultures were plated on the 96 well plates at the appropriate seeding density in the optimal medium to give logarithmic growth over the course of the assay. The plates with MCF-7 and PNT1A cells were incubated 24h at 37°C in a humidified CO2 atmosphere to allow for recovery from trypsinization before adding of test and control compounds. […] Control compounds Ara-C and Gemcitabine stock solutions were prepared in sterile water. Each test and control compound was diluted twice the final concentration in appropriate media. Half of the final well volume of each dilution was added in six parallels to plates containing cells. […] The plates were returned to 37°C in a humidified CO2 atmosphere and incubated for 5 days. […] Following incubation the absorbance at a wavelength of 450nm was measured from each well using a multilabel counter. The absorbance at wavelength 450nm correlates linearly to number of viable cells in the well. The means and standard deviations for parallel samples were calculated and plotted as a graph.

[2] = test system: LNCaP prostate cancer cell line; test: Tetrazolium dye proliferation (WST-1) assay, LNCaP; assay type: cell-based; settings: 5 days incubation; for proliferation inhibitory effect compared with Gemcitabine: Gemcitabine set to 0, negative = less inhibition than Gemcitabine; for inhibition at 1 µM: Homo sapiens, 120 h, concentration not given (primary screen 1 microM), mean±SD, read-out: proliferation inhibitory effect compared with 0.1 % DMSO vehicle control group
Protocol: as §1

[3] = test system: PNT1A immortalized normal prostate cell line; test: Tetrazolium dye proliferation (WST-1) assay, PNT1A; assay type: cell-based; settings: Homo sapiens, 120 h, 5 days incubation, concentration not given (primary screen 1 microM), mean±SD, read-out: proliferation inhibitory effect compared with 0.1 % DMSO vehicle control group
Protocol: as §1

[4] = test system: RC and S790 mouse mammary carcinomas; settings: considered non active; cited from earlier work
acute leukaemia = settings: up to 9 patients treated; cited from earlier work
pancreatic cancer cells = test: Effect on other cancer cells (pancreatic); assay type: cell-based; settings: other type of cancer cells such as pancreatic cancer cells

5-Iodo-2'-deoxyuridine (Idoxuridine) [Compound F]
proliferation inhibitory effect compared with Gemcitabine [1]: -174.8±33.9%

O=c1[nH]c(=O)n([C@H]2C[C@H](O)[C@@H](CO)O2)cc1F [Floxuridine]
proliferation inhibitory effect compared with Gemcitabine [2]: -34.7±3.1% | inhibition at 1 µM [2]: 58.3 ± 1% | inhibition at 1 µM [3]: 88.3 ± 0.6% | proliferation inhibitory effect compared with Gemcitabine [1]: -50.4±35.6% | inhibition at 1 µM [1]: 66.2 ± 8%

Nc1ncnc2[nH]ncc12 [Compound I, 4-Aminopyrazolo[3,4-d]pyrimidine]
proliferation inhibitory effect compared with Gemcitabine [2]: 93.1±0.7% | inhibition at 1 µM [2]: 97.9 ± 0.5% | tumor growth inhibition [4]: 10% | inhibition at 1 µM [3]: 18 ± 2.1% | antitumour activity in man (acute leukaemia): did not demonstrate any antitumour activity in man | effect on pancreatic cancer cells (pancreatic cancer cells): no effect was detected | proliferation inhibitory effect compared with Gemcitabine [1]: 93.8±2.4% | inhibition at 1 µM [1]: 98.6 ± 0.5%

5-Bromo-2'-deoxyuridine (Broxuridine) [Compound E]
proliferation inhibitory effect compared with Gemcitabine [1]: -221.1±50.3%

Nc1ccn([C@@H]2O[C@H](CO)[C@@H](O)[C@@H]2O)c(=O)n1 [Ara-C]
inhibition at 1 µM [2]: 50.1 ± 3.4% | inhibition at 1 µM [3]: 66.5 ± 1.8% | inhibition at 1 µM [1]: 78.3 ± 3.9%

Nc1ccn([C@@H]2O[C@H](CO)[C@@H](O)C2(F)F)c(=O)n1 [Gemcitabine, 2',2'-difluorodeoxycytidine]
proliferation inhibitory effect compared with Gemcitabine [2]: 0% | inhibition at 1 µM [2]: 71.2 ± 0.8% | inhibition at 1 µM [3]: 98.8 ± 0.3% | proliferation inhibitory effect compared with Gemcitabine [1]: 0% | inhibition at 1 µM [1]: 80 ± 3.7%
